PMC5380659, “Unique charge-dependent constraint on collagen recognition by integrin α10β1” (Matrix Biology, 2017)
“Also recorded” adds a separate entry of the source.

Legend:
[1] = test system: human recombinant GST-α10 I domain; assay: Solid-phase binding assay (SPBA) of wild-type α10 I domain; conditions: short THPs, 2 mM Mg^2 +, 1 h, Fig. 4A
Method: The α10 I domain was applied to the collagen II and III Toolkits in the presence or absence of Mg^2 +, and was detected using anti-GST, as described in Experimental: data are shown in Fig. 1. The background response is indicated by wells coated with the control peptide, GPP10 (corresponding to the host sequence), or BSA.
(§1) I domain adhesion was determined colorimetrically, as described, here termed solid phase binding assay (SPBA). Peptides were coated at 10 μg/ml for 1 h at 22 °C on Immulon-2 HB 96-well plates (Thermo Life Sciences, Basingstoke, UK), and blocked for 1 h with 200 μl of TBS containing 50 mg/ml bovine serum albumin. Wells were washed four times with 200 μl of the adhesion buffer (TBS with 1 mg/ml bovine serum albumin) before adding 100 μl of adhesion buffer containing 10 μg/ml of recombinant GST I domains in the presence of either 2 mM MgCl2 or EDTA for 1 h at room temperature. Wells were washed five times with 200 μl of adhesion buffer containing MgCl2 or EDTA, before adding 100 μl of adhesion buffer containing the anti-GST-HRP conjugate at 1:10,000 dilution for 1 h at room temperature. After washing, colour was developed using an ImmunoPure TMB Substrate Kit (Pierce) according to the manufacturer's instructions.

[2] = test system: collagen-binding integrins; set-up: method as in 3 sources, ref [7], [8] = [7]; PMID 10778855; doi:10.1016/S0092-8674(00)80622-4; 7 Emsley J. Knight C.G. Farndale R.W. Barnes M.J. Liddington R.C. Structural basis of collagen recognition by integrin alpha2beta1 Cell 101 1 2000 47 56 10778855 10.1016/S0092-8674(00)80622-4 || [8]; PMID 16326707; doi:10.1074/jbc.M509818200; 8 Raynal N. Hamaia S.W. Siljander P.R. Maddox B. Peachey A.R. Fernandez R. Foley L.J. Slatter D.A. Jarvis G.E. Farndale R.W. Use of synthetic peptides to locate novel integrin alpha2beta1-binding moti ||| ref [8], [10] = [8]; PMID 16326707; doi:10.1074/jbc.M509818200; 8 Raynal N. Hamaia S.W. Siljander P.R. Maddox B. Peachey A.R. Fernandez R. Foley L.J. Slatter D.A. Jarvis G.E. Farndale R.W. Use of synthetic peptides to locate novel integrin alpha2beta1-binding moti || [10]; PMID 16043429; doi:10.1074/jbc.M502431200; 10 Kim J.K. Xu Y. Xu X. Keene D.R. Gurusiddappa S. Liang X. Wary K.K. Hook M. A novel binding site in collagen type III for the integrins, alpha 1beta 1 and alpha 2beta 1 J. Biol. Chem. 280 2005 32512 ||| ref [11] = [11]; PMID 10986291; doi:10.1074/jbc.M007668200; 11 Xu Y. Gurusiddappa S. Rich R.L. Owens R.T. Keene D.R. Mayne R. Hook A. Hook M. Multiple binding sites in collagen type I for the integrins α1β1 and α2β1 J. Biol. Chem. 275 2000 38981 38989 10986291; conditions: cited from earlier work
Excerpt: Many related motifs have now been identified using the Collagen Toolkits developed in this laboratory for the purpose. These are libraries of overlapping peptides of 27 amino acids of collagen primary sequence (guest sequence), flanked ...

α10β1 = assay: Overall recognition by α10β1 (I domain and C2C12-α10β1 cells, summary); conditions: abstract and discussion; I domain and/or C2C12-α10β1 cells
Method: as §1
The mouse myoblast cell line, C2C12, (control and transfectants, C2C12-α1β1, C2C12-α2β1, C2C12-α10β1 or C2C12-α11β1) was maintained in RPMI medium containing 10% fetal bovine serum, 2 mM glutamine, 100 IU/ml penicillin, 100 μg/ml streptomycin, and 2.5 μg/ml amphotericin. Cells were harvested by centrifugation, washed, and suspended at 0.5 × 10^6/ml in Tris-buffered saline supplemented with 5.5 mM glucose and either 2 mM EDTA or 2 mM MgCl2. SPBA was performed as follows: 100 μl of the cell suspension was added to peptide-coated wells [42] at 20 °C for 60 min. Cell adhesion was determined colorimetrically after lysis, using a lactate dehydrogenase (LDH)-based cell detection kit (Roche Diagnostics) according to the supplier's instructions.
(§2) To quantitate C2C12-α10β1 binding to collagen peptides, we used the impedance-based xCELLigence system (Acea) that allows label-free, dynamic monitoring of cell adhesion in real-time. The assay system expresses the adhesion-dependent rise in well impedance in units of cell index (CI), defined as (Rn − Rb) / 15; where Rn is the electrical impedance of each cell-containing well and Rb is the background impedance of the well with medium alone

C2C12-α10β1 cells = assay: xCELLigence real-time adhesion of C2C12-α10β1 cells; format: cell-based, mouse; conditions: up to 1 h, compared with GPP10 negative control, Fig. 6C
Method: Fig. 3 Binding of α10β1-transfected C2C12 cells to collagens and selected Toolkit peptides. Peptides or collagens were coated on ePlates as described, then cells were added in the presence of 2 mM Mg^2 + or EDTA, and Cell Index value was collected over 1 h. […] B: time courses are shown of adhesion to selected Toolkit peptides or GPP-10.
as §2
Briefly, C2C12 cells were seeded at 2.5 × 10^4 cells/well in an E-plate (Roche Applied Science) pre-coated with peptides as for SPBA, and CI was measured for up to 2 h.

C2C12-α1β1 cells = assay: xCELLigence real-time adhesion of C2C12-α1β1 cells; format: cell-based, mouse; conditions: up to 1 h, compared to GFOGER, Fig. 6A
C2C12-α11β1 cells = assay: xCELLigence real-time adhesion of C2C12-α11β1 cells; format: cell-based, mouse; conditions: up to 1 h, compared to GFOGER, Fig. 6D

Row | Substance | Binding of α10 I domain to short triple-helical peptides [1] | Ligand of collagen-binding integrins, highest affinity motif ([2]; in collagens I and II, ref [7], [8]) | Recognition by α10β1, summary (α10β1) | Cell adhesion to short THPs (time course) (C2C12-α10β1 cells) | Ligand of collagen-binding integrins, GROGER ([2]; ref [8], [10]) | Adhesion of C2C12-α1β1 cells to short THP (time course) (C2C12-α1β1 cells) | Adhesion of C2C12-α11β1 cells to short THP (time course) (C2C12-α11β1 cells)
1 | GFOGER [THP containing GFOGER served as positive control, reference compound] | less well | highest affinity ligand | – | – | – | – | –
2 | GLOGEN [short THP containing GLOGEN] | bound strongly | – | selective ligand in preference to GFOGER; also recorded: high-affinity site | – | – | – | –
3 | GROGER [short triple-helical peptide containing GROGER] | – | – | only weakly recognised by α10β1; also recorded: compromised in the context of α10β1; also recorded: α10-repellent | poor binding; also recorded: of comparable level to the GPP10 negative control peptide | quite a good ligand | bound quite well | bound quite well
